{"source": "patent US10323000B2", "about": "“Indole derivatives and their use in neurodegenerative diseases” (priority 2014, dated 2019)", "data": [{"biological_target": "human P2X7 receptor (Homo sapiens (Human), UniProt Q99572)", "sequence (Q99572 whole entry)": "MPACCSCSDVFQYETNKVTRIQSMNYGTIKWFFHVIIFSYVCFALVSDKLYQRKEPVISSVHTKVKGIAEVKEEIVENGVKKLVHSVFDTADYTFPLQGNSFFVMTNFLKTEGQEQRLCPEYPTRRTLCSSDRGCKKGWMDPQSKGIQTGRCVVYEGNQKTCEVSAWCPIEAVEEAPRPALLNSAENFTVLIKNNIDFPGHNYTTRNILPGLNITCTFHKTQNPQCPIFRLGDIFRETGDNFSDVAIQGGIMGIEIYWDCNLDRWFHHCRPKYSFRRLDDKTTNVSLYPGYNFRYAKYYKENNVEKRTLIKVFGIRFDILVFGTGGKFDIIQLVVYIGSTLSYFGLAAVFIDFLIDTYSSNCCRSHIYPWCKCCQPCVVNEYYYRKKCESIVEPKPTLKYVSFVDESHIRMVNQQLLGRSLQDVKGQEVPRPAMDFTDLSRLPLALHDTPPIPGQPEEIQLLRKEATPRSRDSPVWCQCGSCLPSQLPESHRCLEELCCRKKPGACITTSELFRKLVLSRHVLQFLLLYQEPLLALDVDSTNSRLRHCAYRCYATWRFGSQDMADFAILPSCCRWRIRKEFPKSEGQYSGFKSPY", "experiment": "Pore permeation assay (YO PRO dye uptake)", "type": "cell-based", "details": "not given", "experimental": "(§1) Agonist-induced pore formation was determined by measuring cellular uptake of YO PRO fluorescence dye in HEK293 transfected with human P2X7 receptor. A HEK293 cell over expressing human P2X7 was harvested using HQTase reagent to detach the cells from T75 cm flask. The harvested cells are centrifuged @1200 rpm for 5 min at room temperature. The viability of cells was determined by Trypan blue dye and the cells are plated @10,000 cell/well in 50 ul volume in a 384W BD Poly lysine coated plate and incubated overnight at 37 C. […] The plate was centrifuged at 1000 rpm for 5 seconds and incubated at room temperature for 30 minutes. The uptake of YO PRO dye into the cells was measured using Envision Fluorescence plate reader instrument (Perkin Elmer).", "units": {"IC50": "nM"}, "values": [{"molecule": "CC(O)(CNC(=O)c1cn(C2COC2)c2cccc(Cl)c12)C1CCCC1", "note": "(stereo not shown) [Compound 49, 4-Chloro-1-oxetan-3-yl-1H-indole-3-carboxylic acid (2-cyclopentyl-2-hydroxy-propyl)-amide]", "IC50": "500 to 999"}, {"molecule": "O=C(NCC(F)F)c1cn(C2COC2)c2cccc(Cl)c12", "note": "[Compound 76, 4-Chloro-1-oxetan-3-yl-1H-indole-3-carboxylic acid (2,2-difluoro-ethyl)-amide]", "IC50": "> 1000"}, {"molecule": "COCCn1cc(C(=O)NC[C@@]2(O)CCC[C@@H](C)C2)c2c(Cl)cccc21", "note": "[Compound 15, 4-Chloro-1-(2-methoxy-ethyl)-1H-indole-3-carboxylic acid ((1R,3R)-1-hydroxy-3-methyl-cyclohexylmethyl)-amide]", "IC50": "10 to 100"}, {"molecule": "CC(C)(CNC(=O)c1cn(C2CCOC2)c2cccc(Cl)c12)C1CCCC1", "note": "(stereo not shown) [Compound 103, 4-Chloro-1-(tetrahydro-furan-3-yl)-1H-indole-3-carboxylic acid (2-cyclopentyl-2-methyl-propyl)-amide]", "IC50": "101 to 500"}, {"molecule": "COCCn1cc(C(=O)NCCC2(O)CCCC2)c2c(Cl)cccc21", "note": "[Compound 16, 4-Chloro-1-(2-methoxy-ethyl)-1H-indole-3-carboxylic acid [2-(1-hydroxy-cyclopentyl)-ethyl]-amide]", "IC50": "500 to 999"}, {"molecule": "COCCn1cc(C(=O)NCc2ccccc2C(F)(F)F)c2c(Cl)cccc21", "note": "[Compound 24, 4-Chloro-1-(2-methoxy-ethyl)-1H-indole-3-carboxylic acid 2-trifluoromethyl-benzylamide]", "IC50": "500 to 999"}, {"molecule": "O=C(NC1(C2CCCCC2)CC1)c1cn(C2COC2)c2cccc(Cl)c12", "note": "[Compound 55, 4-Chloro-1-oxetan-3-yl-1H-indole-3-carboxylic acid (1-cyclohexyl-cyclopropyl)-amide]", "IC50": "101 to 500"}, {"molecule": "O=C(NCC1CCC(F)(F)CC1)c1cn(CCC(F)F)c2cccc(Cl)c12", "note": "[Compound 11, 4-Chloro-1-(3,3-difluoro-propyl)-1H-indole-3-carboxylic acid (4,4-di fluoro-cyclohexyl methyl)-amide]", "IC50": "10 to 100"}, {"molecule": "O=C(NCC1(O)CCC(F)(F)CC1)c1cn(C2CCOC2)c2cccc(Cl)c12", "note": "(stereo not shown) [Compound 104, 4-Chloro-1-(tetrahydro-furan-3-yl)-1H-indole-3-carboxylic acid (4,4-difluoro-1-hydroxy-cyclohexylmethyl)-amide]", "IC50": "101 to 500"}, {"molecule": "CC1CC(O)(CNC(=O)c2cn(C3COC3)c3cccc(Cl)c23)CCC1(F)F", "note": "(stereo not shown) [Compound 46, 4-chloro-N-((4,4-difluoro-1-hydroxy-3-methylcyclohexyl)methyl)-1-(oxetan-3-yl)-1H-indole-3-carboxamide]", "IC50": "101 to 500"}, {"molecule": "O=C(NCC1(O)CCCC2(CC2)C1)c1cn(C2COC2)c2cccc(Cl)c12", "note": "(stereo not shown) [Compound 57, 4-chloro-N-((5-hydroxyspiro[2.5]octan-5-yl)methyl)-1-(oxetan-3-yl)-1H-indole-3-carboxamide]", "IC50": "101 to 500"}, {"molecule": "O=C(NCC1CCC(F)(F)CC1)c1cn(C2CC3(CNC3)C2)c2cccc(Cl)c12", "note": "(stereo not shown) [Compound 172, 4-chloro-N-((4,4-difluorocyclohexyl)methyl)-1-(2-azaspiro[3.3]heptan-6-yl)-1H-indole-3-carboxamide]", "IC50": "500 to 999"}, {"molecule": "COCCn1cc(C(=O)NCc2ccccc2F)c2c(Cl)cccc21", "note": "[Compound 25, 4-Chloro-1-(2-methoxy-ethyl)-1H-indole-3-carboxylic acid 2-fluoro-benzylamide]", "IC50": "500 to 999"}, {"molecule": "COCCn1cc(C(=O)NC2COc3ccccc3C2)c2c(Cl)cccc21", "note": "(stereo not shown) [Compound 29, 4-Chloro-1-(2-methoxy-ethyl)-1H-indole-3-carboxylic acid chroman-3-ylamide]", "IC50": "101 to 500"}, {"molecule": "CC(C)(CNC(=O)c1cn(C2COC2)c2cccc(Cl)c12)C1CCCC1", "note": "[Compound 50, 4-Chloro-1-oxetan-3-yl-1H-indole-3-carboxylic acid (2-cyclopentyl-2-methyl-propyl)-amide]", "IC50": "101 to 500"}, {"molecule": "O=C(NCC1CCC(F)(F)CC1)c1cn(C2CCCO2)c2cccc(Cl)c12", "note": "(stereo not shown) [Compound 99, 4-chloro-N-((4,4-difluorocyclohexyl)methyl)-1-(tetrahydrofuran-2-yl)-1H-indole-3-carboxamide]", "IC50": "101 to 500"}, {"molecule": "CC1CC(O)(CNC(=O)c2cn(C3CCCO3)c3cccc(Cl)c23)CCC1(F)F", "note": "(stereo not shown) [Compound 97, 4-chloro-N-((4,4-difluoro-1-hydroxy-3-methylcyclohexyl)methyl)-1-(tetrahydrofuran-2-yl)-1H-indole-3-carboxamide]", "IC50": "101 to 500"}, {"molecule": "O=C(NC(CCO)C1CCCCC1)c1cn(C2CCOC2)c2cccc(Cl)c12", "note": "(stereo not shown) [Compound 110, 4-Chloro-1-(tetrahydro-furan-3-yl)-1H-indole-3-carboxylic acid (1-cyclohexyl-3-hydroxy-propyl)-amide]", "IC50": "101 to 500"}, {"molecule": "O=C(N[C@@H](C1CCCCC1)C(F)(F)F)c1cn(C2COC2)c2cccc(Cl)c12", "note": "[Compound 52, 4-Chloro-1-oxetan-3-yl-1H-indole-3-carboxylic acid ((S)-1-cyclohexyl-2,2,2-trifluoro-ethyl)-amide]", "IC50": "500 to 999"}, {"molecule": "COCCn1cc(C(=O)NC[C@]2(O)CCC[C@H](C)C2)c2c(Cl)cccc21", "note": "[Compound 14, 4-Chloro-1-(2-methoxy-ethyl)-1H-indole-3-carboxylic acid ((1S,3S)-1-hydroxy-3-methyl-cyclohexylmethyl)-amide]", "IC50": "10 to 100"}, {"molecule": "O=C(NCC1(O)CCCC(F)(F)C1)c1cn(CCN2CCCCC2)c2cccc(Cl)c12", "note": "(stereo not shown) [Compound 192, 4-chloro-N-((3,3-difluoro-1-hydroxycyclohexyl)methyl)-1-(2-(piperidin-1-yl)ethyl)-1H-indole-3-carboxamide]", "IC50": "101 to 500"}]}, {"biological_target": "human P2X7 receptor (Homo sapiens (Human), UniProt Q99572)", "experiment": "Pore permeation assay (YO PRO dye uptake)", "type": "cell-based", "details": "HEK293 transfected with human P2X7; BzATP 10 uM; YO PRO dye uptake; read-out: hP2X7 IC50", "experimental": "as §1", "units": {"IC50": "nM"}, "values": [{"molecule": "CC(C)(NC(=O)c1cn(C2COC2)c2cccc(Cl)c12)[C@]12C[C@H]3C[C@H](C[C@H](C3)C1)C2", "note": "[Compound 54, 4-Chloro-1-oxetan-3-yl-1H-indole-3-carboxylic acid (1-adamantan-1-yl-1-methyl-ethyl)-amide]", "IC50": "101 to 500"}, {"molecule": "CCOC(C)CNC(=O)c1cn(C2COC2)c2cccc(Cl)c12", "note": "(stereo not shown) [Compound 78, 4-Chloro-1-oxetan-3-yl-1H-indole-3-carboxylic acid (2-ethoxy-propyl)-amide]", "IC50": "> 1000"}, {"molecule": "O=C(NC(C1CCCC1)C(F)(F)F)c1cn(C2COC2)c2cccc(Cl)c12", "note": "(stereo not shown) [Compound 42, 4-chloro-N-(1-cyclopentyl-2,2,2-trifluoroethyl)-1-(oxetan-3-yl)-1H-indole-3-carboxamide]", "IC50": "> 1000"}, {"molecule": "O=C(NC(c1cccs1)C1CCCCC1)c1cn(C2COC2)c2cccc(Cl)c12", "note": "(stereo not shown) [Compound 60, 4-Chloro-1-oxetan-3-yl-1H-indole-3-carboxylic acid (cyclohexyl-thiophen-2-yl-methyl)-amide]", "IC50": "> 1000"}, {"molecule": "C[C@@H](NC(=O)c1cn(C2COC2)c2cccc(Cl)c12)[C@@]12C[C@@H]3C[C@@H](C[C@@](O)(C3)C1)C2", "note": "[Compound 61, 4-Chloro-1-oxetan-3-yl-1H-indole-3-carboxylic acid [(3-hydroxy-adamantan-1-yl)-ethyl]-amide]", "IC50": "500 to 999"}, {"molecule": "COCCn1cc(C(=O)NCc2ccco2)c2c(Cl)cccc21", "note": "[Compound 28, 4-Chloro-1-(2-methoxy-ethyl)-1H-indole-3-carboxylic acid (furan-2-ylmethyl)-amide]", "IC50": "> 1000"}, {"molecule": "O=C(NCC1(O)CCCC(C(F)(F)F)C1)c1cn(C2COC2)c2cccc(Cl)c12", "note": "(stereo not shown) [Compound 47, 4-chloro-N-((1-hydroxy-3-(trifluoromethyl)cyclohexyl)methyl)-1-(oxetan-3-yl)-1H-indole-3-carboxamide]", "IC50": "> 1000"}, {"molecule": "O=C(NC(C1CCCCC1)C(F)(F)F)c1cn(C2COC2)c2cccc(Cl)c12", "note": "(stereo not shown) [Compound 43, 4-chloro-N-(1-cyclohexyl-2,2,2-trifluoroethyl)-1-(oxetan-3-yl)-1H-indole-3-carboxamide]", "IC50": "> 1000"}, {"molecule": "O=C(NCCC(F)(F)F)c1cn(C2COC2)c2cccc(Cl)c12", "note": "[Compound 77, 4-Chloro-1-oxetan-3-yl-1H-indole-3-carboxylic acid (3,3,3-trifluoro-propyl)-amide]", "IC50": "> 1000"}, {"molecule": "4-Chloro-1-(tetrahydro-furan-3-yl)-1H-indole-3-carboxylic acid (2-cyclopentyl-2-hydroxy-propyl)-amide [Compound 102]", "IC50": "> 1000"}, {"molecule": "CC1(CCNC(=O)c2cn(C3COC3)c3cccc(Cl)c23)OCCO1", "note": "[Compound 71, 4-Chloro-1-oxetan-3-yl-1H-indole-3-carboxylic acid [2-(2-methyl-dioxolan-2-yl)-ethyl]-amide]", "IC50": "> 1000"}, {"molecule": "O=C(N[C@@H](CO)C1CCCCC1)c1cn(C2COC2)c2cccc(Cl)c12", "note": "[Compound 63, 4-Chloro-1-oxetan-3-yl-1H-indole-3-carboxylic acid ((R)-1-cyclohexyl-2-hydroxy-ethyl)-amide]", "IC50": "> 1000"}, {"molecule": "COCCn1cc(C(=O)NCc2nc3ccccc3s2)c2c(Cl)cccc21", "note": "[Compound 31, N-(benzo[d]thiazol-2-ylmethyl)-4-chloro-1-(2-methoxyethyl)-1H-indole-3-carboxamide]", "IC50": "> 1000"}, {"molecule": "COCCn1cc(C(=O)NCc2ccc3c(c2)OCO3)c2c(Cl)cccc21", "note": "[Compound 27, 4-Chloro-1-(2-methoxy-ethyl)-1H-indole-3-carboxylic acid (benzo [1,3]dioxol-5-ylmethyl)-amide]", "IC50": "> 1000"}, {"molecule": "COCCn1cc(C(=O)NCc2cccc3c2OCCO3)c2c(Cl)cccc21", "note": "[Compound 23, 4-Chloro-1-(2-methoxy-ethyl)-1H-indole-3-carboxylic acid (2,3-dihydro-benzo[1,4]dioxin-5-ylmethyl)-amide]", "IC50": "> 1000"}, {"molecule": "COCCn1cc(C(=O)NCc2ccc(C(F)(F)F)cc2)c2c(Cl)cccc21", "note": "[Compound 26, 4-Chloro-1-(2-methoxy-ethyl)-1H-indole-3-carboxylic acid 4-trifluoro methyl-benzylamide]", "IC50": "> 1000"}]}]}
